Source: article PMC6199744, “Development of Chemical Proteomics for the Folateome and Analysis of the Kinetoplastid Folateome” (ACS Infectious Diseases, 2018)

System: L. major lysate proteins
Test: Multitargeted bead mixture chemoproteomics, single concentration competition, proteome-wide
Assay type: binding

## NCCCNc1ccc(C(=O)NC(CCC(=O)O)C(=O)O)cc1 (stereo not drawn) [compound 7]
Protein LMJF.35.0420 40S RIBOSOMAL PROTEIN S3A, PUTATIVE, vehicle control = 1
  fold change: 1.04
Protein LMJF.35.1220, SHORT CHAIN DEHYDROGENASE, PUTATIVE
  fold change relative to vehicle control: 1.22
Protein LMJF.35.1380, MIT[…], BETA SUBUNIT, PUTATIVE
  fold change relative to vehicle control: 1.09
Protein LMJF.35.1830 HYPOTHETICAL PROTEIN, CONSERVED
  fold change vs vehicle control: 0.96
Protein LMJF.35.3340 6-phosphogluconate dehydrogenase
  fold change vs vehicle control: 1.02
Protein LMJF.35.3700 GIM5A PROTEIN, PUTATIVE,GLYCOSOMAL MEMBRANE PROTEIN, vehicle control = 1
  fold change: 0.89
Protein LMJF.35.3760 60S RIBOSOMAL PROTEIN L27A/L29, PUTATIVE
  fold change vs vehicle control: 0.84
Protein LMJF.35.3840, […] 2 SUBUNIT, PUTATIVE
  fold change relative to vehicle control: 1.34
Protein LMJF.35.3860 T-COMPLEX PROTEIN 1, ETA SUBUNIT, PUTATIVE
  fold change vs vehicle control: 0.92
Protein LMJF.35.4420 MIT[…] TRANSPORTER, PUTATIVE, vehicle control = 1
  fold change: 1.06
Protein LMJF.35.4880, HYPOTHETICAL PROTEIN, CONSERVED (TPR repeat, putative)
  fold change relative to vehicle control: 0.98
Protein LMJF.35.5330, ISOPENTENYL-D[…]-ISOMERASE, PUTATIVE
  fold change relative to vehicle control: 1.02
Protein LMJF.36.0070, STRESS-INDUCIBLE PROTEIN STI1 HOMOLOG
  fold change relative to vehicle control: 1.21
Protein LMJF.36.0480 HY[…], CONSERVED, vehicle control = 1
  fold change: 1.01
Protein LMJF.36.0620 HY[…], CONSERVED
  fold change vs vehicle control: 1.07
Protein LMJF.36.0930 40S RIBOSOMAL PROTEIN S18, PUTATIVE
  fold change vs vehicle control: 1.09
Protein LMJF.36.0990 40S RIBOSOMAL PROTEIN S10, PUTATIVE
  fold change vs vehicle control: 1.03
Protein LMJF.36.1140 SHORT CHAIN 3-HYDROXYACYL-COA DEHYDROGENASE, PUTATIVE, vehicle control = 1
  fold change: 0.85
Protein LMJF.36.1260, FRUCTOSE-1,6-BI[…]
  fold change relative to vehicle control: 1.01
Protein LMJF.36.1340 N-ACETYLTRANSFERASE SUBUNIT NAT1, PUTATIVE, vehicle control = 1
  fold change: 0.79
Protein LMJF.36.1650 PROTEASOME BETA 5 SUBUNIT, PUTATIVE
  fold change vs vehicle control: 0.99
Protein LMJF.36.2380, STEROL 24-C-METHYLTRANSFERASE, PUTATIVE
  fold change relative to vehicle control: 0.97
Protein LMJF.36.2950 SUCCINYL-COA LIGASE GDP-FORMING] BETA-CHAIN, PUTATIVE
  fold change vs vehicle control: 1
Protein LMJF.36.3210 14-3-3 PROTEIN-LIKE PROTEIN
  fold change vs vehicle control: 0.87
Protein LMJF.36.3410 SHORT CHAIN DEHYDROGENASE-LIKE PROTEIN
  fold change vs vehicle control: 1.26
Protein LMJF.36.3460 HYPOTHETICAL PROTEIN, CONSERVED (NIPSNAP, putative), vehicle control = 1
  fold change: 0.88
Protein LMJF.36.3580 HY[…], CONSERVED (Protein of unknown function (DUF2009), putative), vehicle control = 1
  fold change: 1.12
Protein LMJF.36.3750 40S RIBOSOMAL PROTEIN S27-1, PUTATIVE, vehicle control = 1
  fold change: 1.02
Protein LMJF.36.5010 40S RIBOSOMAL PROTEIN SA, PUTATIVE
  fold change vs vehicle control: 1.12
Protein LMJF.36.5130 HY[…], CONSERVED
  fold change vs vehicle control: 1.42
Protein LMJF.36.5150 HYPOTHETICAL PROTEIN, CONSERVED
  fold change vs vehicle control: 0.97
Protein LMJF.36.5380, NADH DEHYDROGENASE, PUTATIVE
  fold change relative to vehicle control: 1.14
Protein LMJF.36.5390 PHOSPHORIBOSYLPYROPHOSPHATE SYNTHETASE, PUTATIVE
  fold change vs vehicle control: 0.89
Protein LMJF.36.5620 ISOLEUCYL-TRNA SYNTHETASE, PUTATIVE
  fold change vs vehicle control: 1
Protein LMJF.36.6430 PROTEIN TRANSPORT PROTEIN SEC23-LIKE PROTEIN, vehicle control = 1
  fold change: 0.89
Protein LMJF.36.6760 HY[…], CONSERVED
  fold change vs vehicle control: 1.01
Protein LMJF.[…], MIT[…] BETA SUBUNIT, PUTATIVE
  fold change relative to vehicle control: 0.91
Protein LMJF.[…], POLY(A) EXPORT PROTEIN, PUTATIVE
  fold change relative to vehicle control: 1.14
Vs vehicle control, protein LINJ.20.0630 CYTIDINE TR[…], PUTATIVE,CTP SYNTHASE, PUTATIVE
  fold change: 1.04
Vs vehicle control, protein LINJ.20.1390 COATOMER BETA SUBUNIT, PUTATIVE
  fold change: 0.87
Vs vehicle control, protein LMJF.05.1140 VACUOLAR ATPASE SUBUNIT-LIKE PROTEIN
  fold change: 0.93
Vs vehicle control, protein LMJF.07.1090 DELTA-5 FATTY ACID DESATURASE
  fold change: 0.92
Vs vehicle control, protein LMJF.09.0220 HYPOTHETICAL PROTEIN, CONSERVED
  fold change: 0.78
Vs vehicle control, protein LMJF.11.1030 HYPOTHETICAL PROTEIN, CONSERVED
  fold change: 0.93
Vs vehicle control, protein LMJF.14.0640 FATTY ACID ELONGASE, PUTATIVE
  fold change: 0.8
Vs vehicle control, protein LMJF.14.0705 FATTY ACID ELONGASE, PUTATIVE
  fold change: 1.17
Vs vehicle control, protein LMJF.14.1120 KINESIN K39, PUTATIVE
  fold change: 0.6
Vs vehicle control, protein LMJF.16.1610 PROHIBITIN
  fold change: 1.07
Vs vehicle control, protein LMJF.17.0010 HYPOTHETICAL PROTEIN, CONSERVED
  fold change: 0.87
Vs vehicle control, protein LMJF.18.1130 RAS-RELATED PROTEIN RAB-5, PUTATIVE
  fold change: 0.68
Vs vehicle control, protein LMJF.19.1420 CYSTEINE PEPTIDASE A (CPA)
  fold change: 0.9
Vs vehicle control, protein LMJF.21.0280 HY[…], CONSERVED
  fold change: 0.94
Vs vehicle control, protein LMJF.22.1560 40S RIBOSOMAL PROTEIN L14, PUTATIVE
  fold change: 0.7
Vs vehicle control, protein LMJF.23.1220 T-COMPLEX PROTEIN 1, GAMMA SUBUNIT, PUTATIVE
  fold change: 1.02
Vs vehicle control, protein LMJF.24.0370 ASPARTATE AMINOTRANSFERASE, PUTATIVE
  fold change: 1.01
Vs vehicle control, protein LMJF.25.1770 ENOYL-COA REDUCTASE, PUTATIVE
  fold change: 1.02
Vs vehicle control, protein LMJF.26.0170 60S RIBOSOMAL PROTEIN L7, PUTATIVE
  fold change: 0.9
Vs vehicle control, protein LMJF.26.1550 TRI[…] ALPHA SUBUNIT, MIT[…]-LIKE PROTEIN
  fold change: 1.06
Vs vehicle control, protein LMJF.26.1610 PROLINE OXIDASE, MITOCHONDRIAL PRECURSOR-LIKE PROTEIN
  fold change: 0.83
Vs vehicle control, protein LMJF.28.1950 X-PRO, DIPEPTIDYL-PEPTIDASE,SERINE PEPTIDASE, CLAN SC, FAMILY S15, PUTATIVE
  fold change: 1.14
Vs vehicle control, protein LMJF.31.1070 BIOTIN/LIPOATE PROTEIN LIGASE-LIKE PROTEIN
  fold change: 0.87
Vs vehicle control, protein LMJF.32.1370 HYPOTHETICAL PROTEIN, CONSERVED
  fold change: 0.91
Vs vehicle control, protein LMJF.34.0490 IMPORTIN BETA-1 SUBUNIT, PUTATIVE
  fold change: 0.78
Vs vehicle control, protein LMJF.34.4060 UBIQUITIN HYDROLASE, PUTATIVE,CYSTEINE PEPTIDASE, CLAN CA, FAMILY C19, PUTATIVE
  fold change: 0.91
Vs vehicle control, protein LMJF.36.1600 PROTEASOME ALPHA 1 SUBUNIT, PUTATIVE
  fold change: 0.95
Vs vehicle control, protein LMJF.[…] RIBOSOMAL PROTEIN S7, PUTATIVE
  fold change: 1
